Results from the supplement of paper PMC10307832.

What was measured:
Assay in all cases: relative viability (nuclei count vs DMSO), 5 days (fraction); higher = more cells survive
A-427 = system: A-427
Summary of the method: (§1)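 Lung cancer cell lines, seeded in 1536-well plates, were treated the following day by pin tool with a single drug or with five library-drug doses (not always all listed) in √10 steps on top of a fixed anchor-drug dose. Cells were fixed and nuclei stained in one step after 5 days, and nuclei were counted. Relative viability is the nuclei count for treated wells divided by that for vehicle wells, reported as medians of duplicate plates.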

CAL-12T = system: CAL-12T
Summary of the method: as §1

COR-L 105 = system: COR-L 105
Summary of the method: as §1

EPLC-272H = system: EPLC-272H
Summary of the method: as §1

HCC-15 = system: HCC-15
Summary of the method: as §1

HCC-44 = system: HCC-44
Summary of the method: as §1

LC-2-ad = system: LC-2-ad
Summary of the method: as §1

LCLC-97TM1 = system: LCLC-97TM1
Summary of the method: as §1

NCI-H1395 = system: NCI-H1395
Summary of the method: as §1

NCI-H1563 = system: NCI-H1563
Summary of the method: as §1

NCI-H1734 = system: NCI-H1734
Summary of the method: as §1

NCI-H1792 = system: NCI-H1792
Summary of the method: as §1

NCI-H1915 = system: NCI-H1915
Summary of the method: as §1

NCI-H1975 = system: NCI-H1975
Summary of the method: as §1

NCI-H2023 = system: NCI-H2023
Summary of the method: as §1

NCI-H2347 = system: NCI-H2347
Summary of the method: as §1

NCI-H2405 = system: NCI-H2405
Summary of the method: as §1

NCI-H520 = system: NCI-H520
Summary of the method: as §1

NCI-H838 = system: NCI-H838
Summary of the method: as §1

SW 1573 = system: SW 1573
Summary of the method: as §1

UMC-11 = system: UMC-11
Summary of the method: as §1

## CCNC(=O)c1noc(-c2cc(C(C)C)c(O)cc2O)c1-c1ccc(CN2CCOCC2)cc1 [Luminespib] + CS(=O)(=O)N1CCN(Cc2cc3nc(-c4cccc5[nH]ncc45)nc(N4CCOCC4)c3s2)CC1 [Pictilisib] (partner 1 µM)
A-427; first compound 0.002 µM
  relative viability: 0.62
A-427; first compound 0.006325 µM
  relative viability: 0.634
A-427; first compound 0.02 µM
  relative viability: 0.441
A-427; first compound 0.06325 µM
  relative viability: 0.733
A-427; first compound 0.2 µM
  relative viability: 0.35
CAL-12T; first compound 0.002 µM
  relative viability: 0.336
CAL-12T; first compound 0.006325 µM
  relative viability: 0.395
CAL-12T; first compound 0.02 µM
  relative viability: 0.25
CAL-12T; first compound 0.06325 µM
  relative viability: 0.111
CAL-12T; first compound 0.2 µM
  relative viability: 0.143
COR-L 105; first compound 0.002 µM
  relative viability: 0.386
COR-L 105; first compound 0.006325 µM
  relative viability: 0.488
COR-L 105; first compound 0.02 µM
  relative viability: 0.248
COR-L 105; first compound 0.06325 µM
  relative viability: 0.223
COR-L 105; first compound 0.2 µM
  relative viability: 0.254
EPLC-272H; first compound 0.006325 µM
  relative viability: 0.267
EPLC-272H; first compound 0.02 µM
  relative viability: 0.254
EPLC-272H; first compound 0.06325 µM
  relative viability: 0.197
EPLC-272H; first compound 0.2 µM
  relative viability: 0.148
HCC-15; first compound 0.002 µM
  relative viability: 0.724
HCC-15; first compound 0.006325 µM
  relative viability: 0.644
HCC-15; first compound 0.02 µM
  relative viability: 0.623
HCC-15; first compound 0.06325 µM
  relative viability: 0.413
HCC-15; first compound 0.2 µM
  relative viability: 0.157
HCC-44; first compound 0.002 µM
  relative viability: 0.663
HCC-44; first compound 0.006325 µM
  relative viability: 0.641
HCC-44; first compound 0.02 µM
  relative viability: 0.62
HCC-44; first compound 0.06325 µM
  relative viability: 0.381
HCC-44; first compound 0.2 µM
  relative viability: 0.12
LC-2-ad; first compound 0.002 µM
  relative viability: 0.526
LC-2-ad; first compound 0.006325 µM
  relative viability: 0.477
LC-2-ad; first compound 0.02 µM
  relative viability: 0.276
LC-2-ad; first compound 0.06325 µM
  relative viability: 0.11
LC-2-ad; first compound 0.2 µM
  relative viability: 0.0708
LCLC-97TM1; first compound 0.002 µM
  relative viability: 0.17
LCLC-97TM1; first compound 0.006325 µM
  relative viability: 0.223
LCLC-97TM1; first compound 0.02 µM
  relative viability: 0.113
LCLC-97TM1; first compound 0.06325 µM
  relative viability: 0.103
LCLC-97TM1; first compound 0.2 µM
  relative viability: 0.0923
NCI-H1395; first compound 0.002 µM
  relative viability: 0.684
NCI-H1395; first compound 0.006325 µM
  relative viability: 0.725
NCI-H1395; first compound 0.02 µM
  relative viability: 0.429
NCI-H1395; first compound 0.06325 µM
  relative viability: 0.326
NCI-H1395; first compound 0.2 µM
  relative viability: 0.377
NCI-H1563; first compound 0.002 µM
  relative viability: 0.721
NCI-H1563; first compound 0.006325 µM
  relative viability: 0.605
NCI-H1563; first compound 0.02 µM
  relative viability: 0.616
NCI-H1563; first compound 0.06325 µM
  relative viability: 0.525
NCI-H1563; first compound 0.2 µM
  relative viability: 0.551
NCI-H1734; first compound 0.002 µM
  relative viability: 0.519
NCI-H1734; first compound 0.006325 µM
  relative viability: 0.43
NCI-H1734; first compound 0.02 µM
  relative viability: 0.329
NCI-H1734; first compound 0.06325 µM
  relative viability: 0.14
NCI-H1734; first compound 0.2 µM
  relative viability: 0.146
NCI-H1792; first compound 0.002 µM
  relative viability: 0.302
NCI-H1792; first compound 0.006325 µM
  relative viability: 0.273
NCI-H1792; first compound 0.02 µM
  relative viability: 0.13
NCI-H1792; first compound 0.06325 µM
  relative viability: 0.124
NCI-H1792; first compound 0.2 µM
  relative viability: 0.0905
NCI-H1915; first compound 0.002 µM
  relative viability: 0.939
NCI-H1915; first compound 0.006325 µM
  relative viability: 0.729
NCI-H1915; first compound 0.02 µM
  relative viability: 0.567
NCI-H1915; first compound 0.06325 µM
  relative viability: 0.827
NCI-H1915; first compound 0.2 µM
  relative viability: 0.062
NCI-H1975; first compound 0.002 µM
  relative viability: 0.26
NCI-H1975; first compound 0.006325 µM
  relative viability: 0.257
NCI-H1975; first compound 0.02 µM
  relative viability: 0.135
NCI-H1975; first compound 0.06325 µM
  relative viability: 0.115
NCI-H1975; first compound 0.2 µM
  relative viability: 0.106
NCI-H2023; first compound 0.002 µM
  relative viability: 0.274
NCI-H2023; first compound 0.006325 µM
  relative viability: 0.243
NCI-H2023; first compound 0.02 µM
  relative viability: 0.105
NCI-H2023; first compound 0.06325 µM
  relative viability: 0.0887
NCI-H2023; first compound 0.2 µM
  relative viability: 0.0954
NCI-H2347; first compound 0.002 µM
  relative viability: 0.751
NCI-H2347; first compound 0.006325 µM
  relative viability: 0.609
NCI-H2347; first compound 0.02 µM
  relative viability: 0.45
NCI-H2347; first compound 0.06325 µM
  relative viability: 0.54
NCI-H2347; first compound 0.2 µM
  relative viability: 0.4
NCI-H2405; first compound 0.002 µM
  relative viability: 0.514
NCI-H2405; first compound 0.006325 µM
  relative viability: 0.298
NCI-H2405; first compound 0.02 µM
  relative viability: 0.301
NCI-H2405; first compound 0.06325 µM
  relative viability: 0.147
NCI-H2405; first compound 0.2 µM
  relative viability: 0.142
NCI-H520; first compound 0.002 µM
  relative viability: 0.298
NCI-H520; first compound 0.006325 µM
  relative viability: 0.334
NCI-H520; first compound 0.02 µM
  relative viability: 0.209
NCI-H520; first compound 0.06325 µM
  relative viability: 0.176
NCI-H520; first compound 0.2 µM
  relative viability: 0.196
NCI-H838; first compound 0.002 µM
  relative viability: 0.48
NCI-H838; first compound 0.006325 µM
  relative viability: 0.441
NCI-H838; first compound 0.02 µM
  relative viability: 0.223
NCI-H838; first compound 0.06325 µM
  relative viability: 0.117
NCI-H838; first compound 0.2 µM
  relative viability: 0.111
SW 1573; first compound 0.002 µM
  relative viability: 0.508
SW 1573; first compound 0.006325 µM
  relative viability: 0.619
SW 1573; first compound 0.02 µM
  relative viability: 0.428
SW 1573; first compound 0.06325 µM
  relative viability: 0.145
SW 1573; first compound 0.2 µM
  relative viability: 0.105
UMC-11; first compound 0.002 µM
  relative viability: 0.43
UMC-11; first compound 0.006325 µM
  relative viability: 0.764
UMC-11; first compound 0.02 µM
  relative viability: 0.261
UMC-11; first compound 0.06325 µM
  relative viability: 0.603
UMC-11; first compound 0.2 µM
  relative viability: 0.185
